pIC50: −log10 of the molar value. ≈ marks a conversion by molar mass, not a printed value. Where “and” joins values, the source holds several entries; their conditions need not be identical. Equal entries are not always repeated. Where two headings read alike, the source gives them in different places.
Columns and labels:
[1] = test system: 16 MDR P. aeruginosa clinical isolates; experiment: Pyocyanin production in MDR clinical isolates; settings: Pseudomonas aeruginosa, 18 h, Control about 100, replicates
PA14 AT/P cells = experiment: AT/P cells formation assay in PA14; format: cell-based, Pseudomonas aeruginosa; settings: for AT/P cells formation, percentage of control (single replicates): PA14, 10 μg mL^−1 meropenem, 10 µM compound, 24 h, control PA14 + vehicle; for inhibition at 10 µM: Pseudomonas aeruginosa, PA14, 24 h, read-out: inhibition of AT/P cells formation
[2] = test system: MvfR-regulated small molecules in PA14; experiment: Production of HAQs, 2-AA, DHQ and AA in PA14 cultures (LC-MS); settings: Pseudomonas aeruginosa
Method: The HAQs HHQ, PQS, HQNO, and non-HAQs: 2-AA and DHQ produced by PA14 cells were quantified in the presence of NAMs. The overnight grown starter culture was diluted 1:100 in 5 mL LB media in a glass tube and was allowed to grow in the presence (50 µM) or absence of compound at 37 °C and 200 rpm in an incubator shaker until OD600 was 3. Bacterial cultures were subsequently mixed 1:1 (400 μL: 400 μL) with 100% methanol containing 20 ppm (20 μg mL^−1) of tetradeutero-PQS (PQS-D4) and 10 ppm of tetradeutero-HHQ (HHQ-D4) in a 1.5 mL Eppendorf tube. The mixture was vortexed for 5 seconds and spun down for 5 minutes at 12,000 x g. A 700 μL aliquot of the supernatant was removed and stored in glass vials at −20 °C until further liquid chromatography-mass spectrophotometry (LC/MS) analysis as previously described in Lepine et al., 2003[66]. LC/MC analysis was performed using a Micromass Quattro II triple quadrupole mass spectrometer (Micromass Canada, Pointe-Claire, Canada) in positive electrospray ionization mode, interfaced to an HP1100 HPLC equipped with a 4.5 × 150 mm reverse-phase C8 column.
GraphPad Prism 9.2.0 software was used to plot the IC50 curve against the percent inhibition of these small molecules’ production at each concentration.

[3] = test system: pqsA promoter (PA14 PpqsA-GFPASV); experiment: pqsA-GFP reporter expression; format: cell-based, Pseudomonas aeruginosa; settings: Pseudomonas aeruginosa; for activity at 50 µM: PA14, read-out: % Production pqsA-GFP; for pIC50: PA14, read-out: IC50 pqsA-GFP expression, PA14, 13 concentrations
[4] = Solubility in iPBS pH 7.4 by HPLC; format: physicochemical; settings: isotonic phosphate buffer (iPBS), aqueous with cosolvent or surfactant or cyclodextrin, kinetic from dmso stock; iPBS pH 7.4, HPLC; read-out: Solubility (M) in PBS
How it was run: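 Compounds from 10 mM DMSO stock shaken 4 h at room temperature in iPBS pH 7.4 (10 mM PBS, 2.7 mM KCl, 140 mM NaCl, 0.05% Tween), then filtered. Concentration measured by HPLC-UV against a known standard solution; solubility given as ratio of compound in test solution to standard.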

[5] = test system: pyocyanin production in PA14; experiment: Pyocyanin production assay; settings: Pseudomonas aeruginosa; for activity at 50 µM: PA14, 18 h, read-out: % Production Pyocyanin; for pIC50: PA14, read-out: IC50 pyocyanin production
Method: The over-day culture was grown to OD600nm 1.5., diluted again at 1:10,000 in 5 mL LB and incubated with 10 μM of the test compound or the vehicle control for 18 hours at 37 °C and 200 rpm in an incubator shaker. After 18 h, 1 mL of culture was centrifuged for 2 min at 20.000 x g. The supernatant was transferred to a new tube, 200 μL of this were loaded in a flat-bottom 96-well plate, and the pyocyanin levels were quantified by measuring at OD690nm in the infinite F200 plate reader using the Magellan software (Tecan, Switzerland). […] The percent of pyocyanin was calculated compared to the PA14 culture grown in the absence of compounds.
To determine the IC50 of pyocyanin production, we followed the same process as above. […] Using GraphPad Prism Software, the IC50 curve was plotted against percent inhibition of pyocyanin production at each concentration using PA14 in the absence of compounds as a control.

ΔmvfR biofilm = experiment: Biofilm formation of ΔmvfR mutant (off-target); settings: Pseudomonas aeruginosa, PA14, 24 h, read-out: Biofilm formation, ΔmvfR + compound; PA14 about 100; single replicates (Figure 4c)
[6] = test system: PA14 isogenic mutant ΔmvfR AT/P cells; experiment: AT/P cell formation in ΔmvfR mutant (off-target); settings: Pseudomonas aeruginosa, PA14, 24 h, read-out: AT/P cell formation, ΔmvfR + compound; PA14 about 100; single replicates (Figure 4b)
[7] = test system: mvfR mutant constitutively expressing the pqsABCDE operon; format: cell-based; settings: Pseudomonas aeruginosa, control about 100, single replicates (Figure 4a)
MvfR protein (MvfRC87) = molecular target: T1, MvfR protein (MvfRC87) (Pseudomonas aeruginosa, UniProt Q9I4X0); format: binding; settings: SPR
T1 construct: The MvfRC87 protein purified as in Xiao et. al., 2006; made in house
How it was run: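 MvfRC87 amine-coupled to a CM7 chip (3000–5000 RU) and binding measured by SPR. Double-reference-corrected responses 5 s before end of association plotted against concentration, for inhibitor alone and with native ligand PQS, compared with responses calculated for different binding sites.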

[8] = read-out: Pyocyanin production relative to Control, clinical isolate LGR-4325
[9] = read-out: Pyocyanin production relative to Control, clinical isolate LGR-4326
[10] = read-out: Pyocyanin production relative to Control, clinical isolate LGR-4327
[11] = read-out: Pyocyanin production relative to Control, clinical isolate LGR-4328
[12] = read-out: Pyocyanin production relative to Control, clinical isolate LGR-4330
[13] = read-out: Pyocyanin production relative to Control, clinical isolate LGR-4331 (first section, r117)
[14] = read-out: Pyocyanin production relative to Control, clinical isolate LGR-4331 (second section, r140)
[15] = read-out: Pyocyanin production relative to Control, clinical isolate LGR-4333
[16] = read-out: Pyocyanin production relative to Control, clinical isolate LGR-4343
[17] = read-out: Pyocyanin production relative to Control, clinical isolate LGR-4344
[18] = read-out: Pyocyanin production relative to Control, clinical isolate LGR-4348
[19] = read-out: Pyocyanin production relative to Control, clinical isolate LGR-4356
[20] = read-out: Pyocyanin production relative to Control, clinical isolate LGR-4362
[21] = read-out: Pyocyanin production relative to Control, clinical isolate LGR-4363
[22] = read-out: Pyocyanin production relative to Control, clinical isolate LGR-4364 (first section, r326)
[23] = read-out: Pyocyanin production relative to Control, clinical isolate LGR-4364 (second section, r349)
[24] = PA14, read-out: % Production 2-AA
[25] = PA14, read-out: % Production AA
[26] = PA14, read-out: % Production DHQ
[27] = PA14, read-out: % Production HHQ
[28] = PA14, read-out: % Production HQNO
[29] = PA14, read-out: % Production PQS
[30] = PA14, read-out: HHQ production inhibition
[31] = PA14, read-out: HQNO production inhibition
[32] = PA14, read-out: PQS production inhibition
[33] = PA14, read-out: inhibition of 2-AA production
[34] = PA14, read-out: inhibition of DHQ production
[35] = read-out: DHQ, ΔmvfR-pqsABCD strain
[36] = read-out: PQS, ΔmvfR-pqsABCD strain

T1 sequence (Q9I4X0 87-332): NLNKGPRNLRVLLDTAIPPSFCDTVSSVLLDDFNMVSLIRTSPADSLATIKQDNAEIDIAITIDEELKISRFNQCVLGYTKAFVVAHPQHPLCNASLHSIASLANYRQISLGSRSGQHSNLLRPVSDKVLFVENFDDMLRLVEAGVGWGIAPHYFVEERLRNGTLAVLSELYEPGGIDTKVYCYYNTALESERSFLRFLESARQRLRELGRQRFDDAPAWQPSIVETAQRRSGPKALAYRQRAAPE

In the case of `N#Cc1ccc(NC(=O)CC(=O)Nc2ccc(C#N)cc2)cc1` [D43], the activity at 10 µM [1, 8] was 14.5%, the activity at 10 µM [1, 9] was 9.84% and the activity at 10 µM [1, 10] was 26.2%. For the same molecule, the activity at 10 µM [1, 11] was 9.98%, the activity at 10 µM [1, 12] was 15% and the activity at 10 µM [1, 13] was 16.3%. It also gave an activity at 10 µM [1, 14] of 11.8%, an activity at 10 µM [1, 15] of 15.2% and an activity at 10 µM [1, 16] of 24.3%. The activity at 10 µM [1, 17] was 25.8%, the activity at 10 µM [1, 18] was 12.6% and the activity at 10 µM [1, 19] was 20.8%. The activity at 10 µM [1, 20] was 23.7%, the activity at 10 µM [1, 21] was 13.4% and the activity at 10 µM [1, 22] was 21.7%. The activity at 10 µM [1, 23] was 19.3%, the “AT/P cells formation, percentage of control (single replicates)” value (PA14 AT/P cells) was 39.10% and the inhibition at 10 µM (PA14 AT/P cells) was at least 51%. It also gave an activity at 50 µM [2, 24] of 19%, an activity at 50 µM [2, 25] of 531% and an activity at 50 µM [2, 26] of 34%. For the same molecule, the activity at 50 µM [2, 27] was 22%, the activity at 50 µM [2, 28] was 39% and the activity at 50 µM [2, 29] was 24%. It also gave an inhibition at 50 µM [2, 30] of 89 to 99%, an inhibition at 50 µM [2, 31] of 40 to 92% and an inhibition at 50 µM [2, 32] of 76 to 97%. The inhibition at 50 µM [2, 33] was 82 to 95%, the inhibition at 50 µM [2, 34] was 82 to 96% and the activity at 50 µM [3] was 8%. For the same molecule, the pIC50 [3] was 6.01, the solubility at 4 h [4] was 1.1e-05 M (≈ 3.35 µg/mL) and the activity at 50 µM [5] was 8%. The pIC50 [5] was 5.86, the activity at 10 µM (ΔmvfR biofilm) was 41.4% and the activity at 10 µM [6] was 30.1%. For the same molecule, the activity at 50 µM [7, 35] was 103%, the activity at 50 µM ([7]; read-out: HQNO, ΔmvfR-pqsABCD strain) was 91.3% and the activity at 50 µM [7, 36] was 99.4%. The “Response Unit (RU)” value (MvfR protein (MvfRC87); Concentration 1.00E-05 M) was 29.2 RU, the “Response Unit (RU)” value (MvfR protein (MvfRC87); Concentration 1.00E-06 M) was 22.5 RU and the “Response Unit (RU)” value (MvfR protein (MvfRC87); Concentration 1.00E-07 M) was 9.9 RU. The “Response Unit (RU)” value (MvfR protein (MvfRC87); Concentration 1.00E-08 M) was 2.7 RU, the “Response Unit (RU)” value (MvfR protein (MvfRC87); Concentration 3.16E-06 M) was 26.7 RU and the “Response Unit (RU)” value (MvfR protein (MvfRC87); Concentration 3.16E-07 M) was 16.5 RU. For the same molecule, the “Response Unit (RU)” value (MvfR protein (MvfRC87); Concentration 3.16E-08 M) was 5 RU.
Molecule `N#Cc1ccc(NC(=O)CC(=O)Nc2ccc(C(F)(F)F)cc2)cc1` [D69] has an activity at 10 µM [1, 8] of 6.19%, an activity at 10 µM [1, 9] of 4.51% and an activity at 10 µM [1, 10] of 7.7%. It also gave an activity at 10 µM [1, 11] of 29.6%, an activity at 10 µM [1, 12] of 12.9% and an activity at 10 µM [1, 13] of 9.26%. For the same molecule, the activity at 10 µM [1, 14] was 4.8%, the activity at 10 µM [1, 15] was 6.7% and the activity at 10 µM [1, 16] was 10.8%. The activity at 10 µM [1, 17] was 11.6%, the activity at 10 µM [1, 18] was 7.58% and the activity at 10 µM [1, 19] was 6.29%. The activity at 10 µM [1, 20] was 12.3%, the activity at 10 µM [1, 21] was 9.09% and the activity at 10 µM [1, 22] was 10.1%. For the same molecule, the activity at 10 µM [1, 23] was 11.1%, the “AT/P cells formation, percentage of control (single replicates)” value (PA14 AT/P cells) was 16.39% and 11.56% and the inhibition at 10 µM (PA14 AT/P cells) was at least 76%. The activity at 50 µM [2, 24] was 15%, the activity at 50 µM [2, 25] was 920% and the activity at 50 µM [2, 26] was 13%. It also gave an activity at 50 µM [2, 27] of 6%, an activity at 50 µM [2, 28] of 40% and an activity at 50 µM [2, 29] of 16%. It also gave an inhibition at 50 µM [2, 30] of 89 to 99%, an inhibition at 50 µM [2, 31] of 40 to 92% and an inhibition at 50 µM [2, 32] of 76 to 97%. It also gave an inhibition at 50 µM [2, 33] of 82 to 95%, an inhibition at 50 µM [2, 34] of 82 to 96% and an activity at 50 µM [3] of 2%. It also gave a pIC50 [3] of 5.77, a solubility at 4 h [4] of 2.1e-05 M (≈ 7.29 µg/mL) and an activity at 50 µM [5] of 4%. For the same molecule, the pIC50 [5] was 6.02, the activity at 10 µM (ΔmvfR biofilm) was 24.2% and the activity at 10 µM [6] was 30.1%. The activity at 50 µM [7, 35] was 112%, the activity at 50 µM [7, 36] was 90.7% and the “Response Unit (RU)” value (MvfR protein (MvfRC87); Concentration 1.00E-05 M) was 30 RU. The “Response Unit (RU)” value (MvfR protein (MvfRC87); Concentration 1.00E-06 M) was 22.4 RU, the “Response Unit (RU)” value (MvfR protein (MvfRC87); Concentration 1.00E-07 M) was 8.9 RU and the “Response Unit (RU)” value (MvfR protein (MvfRC87); Concentration 1.00E-08 M) was 1.7 RU. For the same molecule, the “Response Unit (RU)” value (MvfR protein (MvfRC87); Concentration 3.16E-06 M) was 27.3 RU, the “Response Unit (RU)” value (MvfR protein (MvfRC87); Concentration 3.16E-07 M) was 15.6 RU and the “Response Unit (RU)” value (MvfR protein (MvfRC87); Concentration 3.16E-08 M) was 4.1 RU.
